In US8524686B2, “Composition for prevention or treatment of eye diseases” (Benebiosis Co., Ltd., priority 2008, dated 2013):

Legend:
[1] = test system: experimental dry eye (EDE) mice; experiment: Measurement of tear production with cotton thread in mouse model of dry eye; format: in vivo, C57BL/6 mice; settings: for Tear production (thread's wet length): n = 6, cotton thread 60 seconds
Protocol: (§1) 6 to 8 weeks old C57BL/6 mice (Central Lab Animal, Seoul, Korea) were used for mouse model for dry eye syndrome. All animals were treated according to the ARVO Statement for the Use of Animals in Ophthalmic and Vision Research. Experimental dry eye (EDE) was induced by subcutaneous injection of 0.5 mg/0.2 mL scopolamine hydrobromide (Sigma-Aldrich, St. Louis, Mo.) in alternating hindquarters administered four times a day (9 AM, […], 3 PM and 6 PM) and by exposure to air and ≦40% ambient humidity for 18 hours per day, as previously reported (23). Four experimental groups were evaluated: untreated group (UT), EDE group (control), EDE+sialyllactose (1 mg/kg) group and EDE+sialyllactose (5 mg/kg) group.
Tear production was measured with cotton thread (Zone-quick; Oasis). The thread was held with jeweler forceps and applied to the ocular surface in the lateral canthus for 60 seconds. Wetting of the thread was measured in millimeters, using the scale on the cotton thread.
Tear production at the ocular surface in the lateral canthus from the UT, EDE and two treatment groups (6 eyes/group/experiment, in four different sets of experiments) was measured with cotton thread.

paxillin = experiment: Immunofluorescence microscopy of anti-paxillin stained focal adhesions in VEGF-stimulated HREC; format: cell-based, human; settings: HREC stimulated with 50 ng/mL VEGF, FIG. 6 G
Protocol: (§2) Human retinal endothelial cells (HREC) were acquired from Sciencell (USA). The cells were cultured in sterilized endothelial cell medium (ECM, Sciencell, USA), and kept in a humidified 5% CO2 incubator at 37° C. Passages 4 to 6 of the HREC were used for testing.
(§3) HREC were inoculated onto 12 mm n-sterilized, gelatin-coated coverslip of 6-well tissue culture plate. In the presence or absence of sialyllactose, HREC were immobilized with 3.7% formalin with or without treatment with VEGF. Then, the cells were passed through […] Triton X-100 in PBS and washed three times with PBS. Non-specific sites were blocked with PBS-containing 1% bovine serum albumin, while gently shaking at ambient temperature for 30 minutes. After immersing the cells in a solution of FAK, paxillin, vincullin and VE-cadherin antibodies, the cells were incubated overnight at 4° C. After washing with PBS, the cells were further reacted with Alexa Flour 594-conjugate goat anti-mouse IgG (Molecular Probes, USA) and Alexa Flour 488-conjugate goat anti-rabbit IgG (Molecular Probes, USA) at ambient temperature for 1 hour. After washing with PBS, analysis was carried out by fluorescence microscopy. Primary antibodies previously bound to antigens or secondary antibodies were used as negative control. […]

murine MMP-9 = experiment: SDS-PAGE gelatin zymography of corneal and conjunctival epithelial cells of EDE mice; format: in vivo; settings: FIG. 3
Protocol: as §1
In order to determine the relative concentration of gelatinases in corneal and conjunctival epithelial cells, SDS-PAGE gelatin zymography was performed by using a previously reported method (24). Tissue was homogenized in a sample buffer containing 50 mM Tris-HCl (pH 8.0), 150 mM NaCl, 0.02% NaN3, […] phenylmethylsulfonyl fluoride (PMSF) and 1% Triton X-100. […]
Gelatinolytic activity (105 kDa gelatinolytic band corresponds to murine MMP-9) was evaluated in corneal and conjunctival epithelial cells acquired from the UT, EDE and two treatment groups.

VE-cadherin = experiment: Immunofluorescence microscopy of VEGF-induced intercellular adhesion (VE-cadherin staining) in HREC; format: cell-based, human; settings: VEGF-stimulated HREC, one hour after VEGF stimulation, FIG. 7 C
Protocol: as §2, §3

VEGFR-2 = biological target: T1, VEGFR-2 (Homo sapiens, UniProt P35968); experiment: Western blotting of VEGF-stimulated VEGFR-2 phosphorylation in HREC; format: cell-based; settings: endothelial cells (HREC), concentration-dependent, FIG. 4
T1 construct: host or cells: human retinal endothelial cells (HREC), passages 4 to 6
T1 sequence (P35968 20-1356): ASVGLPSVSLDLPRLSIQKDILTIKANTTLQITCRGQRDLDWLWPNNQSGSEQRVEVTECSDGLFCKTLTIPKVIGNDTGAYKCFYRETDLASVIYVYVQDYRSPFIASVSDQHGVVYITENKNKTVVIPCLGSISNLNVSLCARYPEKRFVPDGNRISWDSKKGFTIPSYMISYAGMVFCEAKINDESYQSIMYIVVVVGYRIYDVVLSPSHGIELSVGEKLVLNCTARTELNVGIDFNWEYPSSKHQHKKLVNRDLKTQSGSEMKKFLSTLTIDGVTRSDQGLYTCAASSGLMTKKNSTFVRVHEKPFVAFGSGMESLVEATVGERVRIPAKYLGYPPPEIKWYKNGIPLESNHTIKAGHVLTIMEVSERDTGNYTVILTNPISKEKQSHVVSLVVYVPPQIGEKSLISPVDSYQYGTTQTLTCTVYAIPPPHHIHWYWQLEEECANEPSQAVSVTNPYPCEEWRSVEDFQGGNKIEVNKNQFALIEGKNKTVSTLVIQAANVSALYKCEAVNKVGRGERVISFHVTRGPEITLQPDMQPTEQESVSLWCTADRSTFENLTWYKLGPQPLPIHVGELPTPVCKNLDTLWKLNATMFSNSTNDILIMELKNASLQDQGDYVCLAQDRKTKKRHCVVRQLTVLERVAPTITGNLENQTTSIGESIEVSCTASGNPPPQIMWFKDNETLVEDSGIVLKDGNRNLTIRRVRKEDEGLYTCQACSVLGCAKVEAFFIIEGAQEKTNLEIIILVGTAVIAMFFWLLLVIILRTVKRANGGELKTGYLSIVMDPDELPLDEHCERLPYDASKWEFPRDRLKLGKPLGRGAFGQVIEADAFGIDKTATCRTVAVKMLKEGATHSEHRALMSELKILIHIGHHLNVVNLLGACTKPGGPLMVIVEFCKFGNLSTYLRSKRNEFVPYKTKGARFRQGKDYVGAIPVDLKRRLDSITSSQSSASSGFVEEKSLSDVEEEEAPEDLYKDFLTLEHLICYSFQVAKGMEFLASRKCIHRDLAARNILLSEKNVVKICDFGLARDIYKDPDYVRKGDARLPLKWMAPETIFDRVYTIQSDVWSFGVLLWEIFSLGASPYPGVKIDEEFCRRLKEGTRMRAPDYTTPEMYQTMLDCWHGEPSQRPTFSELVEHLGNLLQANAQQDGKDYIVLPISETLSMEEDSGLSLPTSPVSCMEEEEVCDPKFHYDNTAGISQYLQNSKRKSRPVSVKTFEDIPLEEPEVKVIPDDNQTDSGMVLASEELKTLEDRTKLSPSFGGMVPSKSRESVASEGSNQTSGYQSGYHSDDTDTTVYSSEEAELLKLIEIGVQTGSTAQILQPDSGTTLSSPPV
Protocol: as §2
(§4) HREC were homogenized in a buffer containing 50 mM Tris-HCl (pH 8.0), 150 mM NaCl, 0.02% NaN3, 100 μg/mL PMSF, 1 μg/mL aprotinin and 1% Triton X-100. Protein concentration was measured using a Bio-Rad protein assay (Bio-Rad, USA). Thirty (30) μg of the total cell lysate sample was separated by SDS-PAGE based on size, and subjected to electrophoretic migration toward a nitrocellulose membrane using a Hoefer electrophoresis system (Amersham Biosciences, UK). For detection of target protein, the membrane was reacted with p-AKT, ERK, p-ERK, VEGFR-2 (flk-1, Q-20), VE-cadherin, FAK, paxillin, vincullin (SantaCruz Biotechnology, USA) and p-VEGFR-2 (Cell Signaling Tech., USA) antibodies. Detection was carried out using secondary horseradish peroxidase-bound anti-rabbit IgG antibody, anti-goat IgG antibody and anti-mouse IgG antibody (SantaCruz Biotechnology, USA), and using ECL chemiluminescence system (Amersham Biosciences, UK).
(§5) VEGF-mediated VEGFR-2 activation plays an important role in tumor angiogenesis via the activation of VEGFR-2 downstream signal pathways in endothelial cells (25). […]

IL-1β = experiment: RT-PCR of IL-1β RNA transcripts in corneal epithelial cells of EDE mice; format: in vivo, murine
Protocol: as §1
(§6) Corneal and conjunctival epithelial cells acquired from six eyes per each test group. Total RNA was isolated using Trizol reagent (JBI Co., Korea) and kept at −80° C. until use. cDNA was synthesized by reverse transcriptase with an oligo dT-adaptor primer from an RNA PCR kit (Bioneer, Korea) according to the manufacturer's recommended protocol. […] In RT-PCR assay, utilization of the same quantity of mRNA was confirmed by analyzing expression level of mGAPDH. […]
(§7) The level of RNA transcripts encoding MMP-9, IL-1β, TNF-α and the housekeeping gene GAPDH were evaluated by RT-PCR using the total RNA of the corneal epithelial cells obtained from each group (UT, EDE and EDE+sialyllactose). […]

[2] = test system: human retinal endothelial cells (HREC); experiment: Tube formation assay on Matrigel, VEGF-stimulated HREC; format: cell-based; settings: 24 hours, concentration-dependent, FIG. 5
Protocol: as §2
Sialyllactose's inhibition effect against HREC's capillary-like network induced by VEGF was investigated using Matrigel-coated 24-well culture plate. Matrigel (13.9 mg/mL) was melted overnight at 4° C. and mixed with ECM medium at a ratio of 1:1. After adding 70 μL of Matrigel (6.95 mg/mL) diluted with ECM to each well of the 24-well culture plate, polymerization was performed for 1 hour at 37° C. For evaluation of tube formation, HREC were detached from the tissue culture plate, washed, resuspended in ECM medium containing 1% FBS (1×10^4 cells/well), and added to the Matrigel-coated well in the presence or absence of VEGF along with sialyllactose at various concentrations. The plate was incubated in a 5% CO2 incubator for 24 hours at 37° C., and capillary-like tube formed in each well of the plate was photographed using a Nikon optical microscope.
The VEGF-mediated VEGFR-2 activation is closely associated with the angiogenic action of endothelial cells such as proliferation, migration, survival and tube formation (25). […]

TNF-α = experiment: RT-PCR of TNF-α RNA transcripts in corneal epithelial cells of EDE mice; format: in vivo, murine
Protocol: as §1, §6, §7

MMP-9 = experiment: RT-PCR of MMP-9 RNA transcripts in corneal epithelial cells of EDE mice; format: in vivo, murine
Protocol: as §1, §6, §7

AKT = experiment: Western blotting of VEGF-induced AKT activation in HREC; format: cell-based, human; settings: FIG. 4
Protocol: as §2, §4, §5

FAK = experiment: Immunofluorescence microscopy of anti-FAK stained focal adhesions in VEGF-stimulated HREC; format: cell-based, human; settings: HREC stimulated with 50 ng/mL VEGF, FIG. 6 C
Protocol: as §2, §3

[3] = corneal epithelial cells, EDE group treated with sialyllactose, FIG. 2

CC(=O)N[C@H]1[C@H]([C@H](O)[C@H](O)CO)O[C@@](O[C@H]2[C@@H](O)[C@@H](CO)O[C@@H](O[C@H]3[C@H](O)[C@@H](O)C(O)O[C@@H]3CO)[C@@H]2O)(C(=O)O)C[C@@H]1O (stereo partly drawn) [sialyllactose, Neu5Ac α-2,3-D-Gal β-1,4-D-Glc]
Tear production versus EDE group ([1]; EDE + sialyllactose test groups (1 and 5 mg/kg)): statistically significant increased tear production
Tear production (thread's wet length) ([1]; EDE mice + sialyllactose 1 mg/kg): 1.55 ± 0.48 mm
Tear production (thread's wet length) ([1]; EDE mice + sialyllactose 5 mg/kg): 1.45 ± 0.34 mm
Recruitment and increase of anti-paxillin immunostaining of focal adhesions (paxillin): certainly blocked
Gelatinolytic activity (105 kDa band, MMP-9) (murine MMP-9; EDE + sialyllactose 1 mg/kg): decreased gelatinolytic activity
Gelatinolytic activity (105 kDa band, MMP-9) (murine MMP-9; EDE + sialyllactose 5 mg/kg): decreased gelatinolytic activity
Sharp and continuous intercellular contact areas (VE-cadherin staining) (VE-cadherin): recovered
VEGF-stimulated VEGFR-2 phosphorylation (VEGFR-2): strongly reduced
Decrease in expression of IL-1β gene, 5 mg/kg compared with 1 mg/kg group (IL-1β; EDE + sialyllactose 5 mg/kg): larger decrease
Level of IL-1β transcripts (IL-1β; [3]): decreased
Width and length of the tube [2]: significantly reduced
Decrease in expression of TNF-α gene, 5 mg/kg compared with 1 mg/kg group (TNF-α; EDE + sialyllactose 5 mg/kg): larger decrease
Level of TNF-α transcripts (TNF-α; [3]): decreased
Decrease in expression of MMP-9 gene, 5 mg/kg compared with 1 mg/kg group (MMP-9; EDE + sialyllactose 5 mg/kg): larger decrease
Level of MMP-9 transcripts (MMP-9; [3]): decreased
VEGF-induced AKT activation (AKT): markedly reduced
Focal adhesions immunostained with anti-FAK (FAK): markedly inhibited
